Assay results reported in US20190390170A1, “METHODS FOR MODULATING PRODUCTION PROFILES OF RECOMBINANT PROTEINS” (ARES TRADING S.A., priority 2016, published 2019).

Key:
[1] = tested on: CHO-K1 cells expressing a monoclonal antibody P2; test: Fed-batch culture of P2 cells with valeric acid (viable cell density, viability, titer); format: cell-based, Chinese hamster
Protocol: Assays were performed with 2 CHO cell lines: • CHO-S cells expressing a fusion protein P1, herein “Cells P1” or “P1 cells”. “P1” is an IgG1 fusion protein, comprising one part directed against a membrane protein (IgG part) linked to a second part targeting a soluble immune protein. Its isoelectric point (pi) is about 6.3-7.0. • CHO-K1 cells expressing a monoclonal antibody P2, herein “Cells P2” or “P2 cells”. “P2” is a humanised monoclonal antibody directed against a receptor found on the cell membrane. Its isoelectric point (pi) is about 9.20-9.40. Cell expansion was performed in tubes in a medium suitable for cell expansion. Assays in fed-batch started after at least one week expansion. Cells expressing both P1 and P2 were inoculated at 0.2×10^6 viable cells per millilitre (mL). All assays were performed in fed-batch culture. The host cells were cultured in fed-batch system either in microplates (“Deep well plate”, “DWP”) or in Spin Tubes®, and incubated at 36.5° C., 90% relative humidity, 5% CO2 and 320 rpm shaking during 14 days. A stock solution of valeric acid was prepared in a standard production proprietary medium. The valeric acid concentration of this stock solution was 195 mM. The stock solution was used to supplement media to test different valeric acid concentrations from the beginning of the culture (day 0; tested concentrations: 1, 1.5 and 2 mM). The solution was also used like a feed to supplement the valeric acid to the culture at different time points during the fed-batch (day 3, 4, 5 or 7). When the solution was used like a feed, the target concentration in the culture was always 1.5 mM. Viable cell density and viability were measured with the Guava easyCyte® flow cytometer or with the ViCell. Antibody titres were measured with the fortéBIO Octet® or with Biacore C®. In this experiment the addition of 1.5 mM valeric acid to the culture on day 03, 04 or 05 was tested. For this experiment a CHO-k1 cell line (P2 cells) was used to confirm that valeric acid has the same effect than on CHO-S cells (P1 cells as discussed in a.).

[2] = tested on: CHO-S cells expressing a fusion protein P1; test: Fed-batch culture of P1 cells with valeric acid (viable cell density, viability, titer); format: cell-based, Chinese hamster
Protocol: Assays were performed with 2 CHO cell lines: • CHO-S cells expressing a fusion protein P1, herein “Cells P1” or “P1 cells”. “P1” is an IgG1 fusion protein, comprising one part directed against a membrane protein (IgG part) linked to a second part targeting a soluble immune protein. Its isoelectric point (pi) is about 6.3-7.0. • CHO-K1 cells expressing a monoclonal antibody P2, herein “Cells P2” or “P2 cells”. “P2” is a humanised monoclonal antibody directed against a receptor found on the cell membrane. Its isoelectric point (pi) is about 9.20-9.40. Cell expansion was performed in tubes in a medium suitable for cell expansion. Assays in fed-batch started after at least one week expansion. Cells expressing both P1 and P2 were inoculated at 0.2×10^6 viable cells per millilitre (mL). All assays were performed in fed-batch culture. The host cells were cultured in fed-batch system either in microplates (“Deep well plate”, “DWP”) or in Spin Tubes®, and incubated at 36.5° C., 90% relative humidity, 5% CO2 and 320 rpm shaking during 14 days. A stock solution of valeric acid was prepared in a standard production proprietary medium. The valeric acid concentration of this stock solution was 195 mM. The stock solution was used to supplement media to test different valeric acid concentrations from the beginning of the culture (day 0; tested concentrations: 1, 1.5 and 2 mM). The solution was also used like a feed to supplement the valeric acid to the culture at different time points during the fed-batch (day 3, 4, 5 or 7). When the solution was used like a feed, the target concentration in the culture was always 1.5 mM. Viable cell density and viability were measured with the Guava easyCyte® flow cytometer or with the ViCell. Antibody titres were measured with the fortéBIO Octet® or with Biacore C®.

[3] = 1.5 mM valeric acid added day 03, 04 or 05, until day 12
[4] = valeric acid in media on day 0 (1, 1.5 and 2 mM)

CCCCC(=O)O [valeric acid]
viability compared to control culture ([1]; 1.5 mM valeric acid added day 03, 04 or 05, starting day 13): prolonged compared to the control culture
cell viability compared to control [1, 3]: no impact on cell viability
titer compared to control [1, 3]: comparable to control
maximum viable cell density compared to control ([1]; 1.5 mM valeric acid added earlier during the culture (day 03, 04 or 05)): decreased
titer increase compared to control ([1]; 1.5 mM valeric acid at day 3, titer at day 17): about 25%
titer increase compared to control ([1]; 1.5 mM valeric acid at day 5, titer at day 17): about 35%
titer increase compared to control ([1]; 1.5 mM valeric acid at day 7 (so in the source), titer at day 17): about 25%
titer obtained ([1]; optimal valeric acid condition, after day 17 (data not shown), control 0.9 g/L): ~5 g/L
viability of the culture compared to control ([2]; 1.5 mM valeric acid added as feed (day 3, 5 or 7), as of day 12): prolonged compared to the control runs
cell viability compared to control ([2]; 1.5 mM valeric acid added as feed (day 3, 5 or 7), until day 11): no impact on cell viability until day 11
increase of titer compared to control ([2]; 1.5 mM valeric acid added as feed at day 3, titer at day 12): about 20%
increase of titer compared to control ([2]; 1.5 mM valeric acid added as feed at day 5, titer at day 12): about 30%
increase of titer compared to control ([2]; 1.5 mM valeric acid added as feed at day 7, titer at day 12): about 20%
cell growth rate compared to control ([2]; 1.5 mM valeric acid added at day 3): slowed down
final titer [2, 4]: not improved
maximum viable cell density [2, 4]: The higher the concentration, the lower the maximum viable cell density
viability [2, 4]: maintained longer than for control experiment
impact on cell density and titer ([2]; valeric acid in the media on day 0): very negative impact on both cell density and titer
